Data: ChEMBL document CHEMBL1142226, “Impact of physicochemical and structural properties on the pharmacokinetics of a series of alpha1L-adrenoceptor antagonists” (Drug Metab Dispos, 2007)

Legend:
[1] = Metabolic stability in Sprague-Dawley rat assessed as hepatic extraction ratio; type: ADME, tissue-based; conditions: liver
[2] = Metabolic stability in Sprague-Dawley rat liver microsomes assessed as half life; type: ADME, Microsome
[3] = Metabolic stability in Sprague-Dawley rat bile assessed as drug remaining; type: ADME
[4] = Elimination half life in Beagle dog at 0.5 mg/kg, iv; type: ADME, organism-based, Canis lupus familiaris; design: dose 0.5 mg/kg, route intravenous; conditions: in vivo
[5] = Oral absorption in Beagle dog at 0.5 mg/kg, po; type: ADME, organism-based, Canis lupus familiaris; design: dose 0.5 mg/kg, route oral; conditions: in vivo, read-out: Fabs
[6] = Dissociation constant, pKa of the compound; type: physicochemical
[7] = Lipophilicity, log D in 0.1M potassium phosphate buffer at pH 7.4; type: physicochemical
[8] = Protein binding in Beagle dog plasma at 1 ug/ml; type: ADME, cell-free, Canis lupus familiaris; conditions: read-out: PPB (converted)
[9] = Oral bioavailability in Beagle dog at 0.5 mg/kg; type: ADME, organism-based, Canis lupus familiaris; conditions: in vivo
[10] = Metabolic stability in Beagle dog liver microsomes assessed as half life at 1 uM; type: ADME, Canis lupus familiaris, Microsome
[11] = Metabolic stability in human liver microsomes assessed as half life at 1 uM; type: ADME, Microsome
[12] = Plasma clearance in Beagle dog at 0.5 mg/kg, iv; type: ADME, organism-based, Canis lupus familiaris; design: dose 0.5 mg/kg, route intravenous
Liver microsomes = assay: Unbound intrinsic clearance in human liver microsomes at 1 uM; type: ADME, Microsome
Canis familiaris [13] = assay: Unbound plasma clearance in Beagle dog at 0.5 mg/kg, iv; type: ADME, organism-based, Canis lupus familiaris; design: dose 0.5 mg/kg, route intravenous; conditions: in vivo
Liver = assay: Unbound intrinsic clearance in Beagle dog liver microsomes at 1 uM; type: ADME, Canis lupus familiaris, Microsome
Canis familiaris [14] = assay: Unbound volume of distribution in Beagle dog at 0.5 mg/kg, iv; type: ADME, organism-based, Canis lupus familiaris; design: dose 0.5 mg/kg, route intravenous; conditions: in vivo
[15] = Volume of distribution in Beagle dog at 0.5 mg/kg, iv; type: ADME, organism-based, Canis lupus familiaris; design: dose 0.5 mg/kg, route intravenous; conditions: in vivo
[16] = Fraction unbound in human liver microsomes at 1 uM; type: ADME, Microsome
[17] = Fraction unbound in Beagle dog liver microsomes at 1 uM; type: ADME, Canis lupus familiaris, Microsome
[18] = Oral bioavailability in Beagle dog at 2 mg/kg; type: ADME, organism-based, Canis lupus familiaris; conditions: in vivo
[19] = Oral absorption in Beagle dog at 2 mg/kg, po; type: ADME, organism-based, Canis lupus familiaris; design: dose 2 mg/kg, route oral; conditions: in vivo, read-out: Fabs
[20] = Oral bioavailability in human at 0.25 to 1.5 mg/kg; type: ADME, organism-based; conditions: in vivo
[21] = Oral bioavailability in Sprague-Dawley rat at 1 mg/kg; type: ADME, organism-based; conditions: in vivo
Rattus norvegicus = assay: Unbound volume of distribution in Sprague-Dawley rat at 0.5 mg/kg, iv; type: ADME, organism-based; design: dose 0.5 mg/kg, route intravenous; conditions: in vivo
[22] = Elimination half life in human at 0.02 mg/kg, po; type: ADME, organism-based; design: dose 0.02 mg/kg, route oral; conditions: in vivo
[23] = Tmax in Sprague-Dawley rat at 1 mg/kg, po; type: ADME, organism-based; design: dose 1 mg/kg, route oral; conditions: in vivo
[24] = Cmax in human at 0.02 mg/kg, po; type: ADME, organism-based; design: dose 0.02 mg/kg, route oral; conditions: in vivo
[25] = Elimination half life in Beagle dog at 0.3 mg/kg, iv; type: ADME, organism-based, Canis lupus familiaris; design: dose 0.3 mg/kg, route intravenous; conditions: in vivo
[26] = Cmax in Sprague-Dawley rat at 1 mg/kg, po; type: ADME, organism-based; design: dose 1 mg/kg, route oral; conditions: in vivo
Homo sapiens = organism: Homo sapiens; assay: Protein binding in human plasma at 1 ug/ml; conditions: read-out: PPB (converted)
[27] = Oral bioavailability in Beagle dog at 0.6 mg/kg; type: ADME, organism-based, Canis lupus familiaris; conditions: in vivo
[28] = Elimination half life in Sprague-Dawley rat at 0.5 mg/kg, iv; type: ADME, organism-based; design: dose 0.5 mg/kg, route intravenous; conditions: in vivo
[29] = Oral absorption in Beagle dog at 0.6 mg/kg, po; type: ADME, organism-based, Canis lupus familiaris; design: dose 0.6 mg/kg, route oral; conditions: in vivo, read-out: Fabs
[30] = Volume of distribution in Beagle dog at 0.3 mg/kg, iv; type: ADME, organism-based, Canis lupus familiaris; design: dose 0.3 mg/kg, route intravenous; conditions: in vivo
[31] = Plasma clearance in Beagle dog at 0.3 mg/kg, iv; type: ADME, organism-based, Canis lupus familiaris; design: dose 0.3 mg/kg, route intravenous
Canis familiaris [32] = assay: Unbound volume of distribution in Beagle dog at 0.3 mg/kg, iv; type: ADME, organism-based, Canis lupus familiaris; design: dose 0.3 mg/kg, route intravenous; conditions: in vivo
[33] = Elimination half life in Sprague-Dawley rat at 1 mg/kg, po; type: ADME, organism-based; design: dose 1 mg/kg, route oral; conditions: in vivo
[34] = Tmax in human at 0.02 mg/kg, po; type: ADME, organism-based; design: dose 0.02 mg/kg, route oral; conditions: in vivo
[35] = Protein binding in Sprague-Dawley rat plasma at 1 ug/ml; type: ADME, cell-free; conditions: read-out: PPB (converted)
[36] = Plasma clearance in Sprague-Dawley rat at 0.5 mg/kg, iv; type: ADME, organism-based; design: dose 0.5 mg/kg, route intravenous
[37] = Volume of distribution in Sprague-Dawley rat at 0.5 mg/kg, iv; type: ADME, organism-based; design: dose 0.5 mg/kg, route intravenous; conditions: in vivo
[38] = Antagonist activity at alpha-1L-adrenoceptor in human prostate assessed as inhibition of noradrenaline-mediated contraction; type: functional, tissue-based, Prostate gland
[39] = Antagonist activity at alpha-1-adrenoceptor in rat aorta assessed as inhibition of noradrenaline-mediated contraction; type: functional, tissue-based

| hepatic extraction ratio [1] | half-life [2] [h] | Stability [3] [%] | half-life [4] [h] | pKa [6] | logD [7] | fraction unbound at 1 ug/ml [8] | half-life at 1 µM [10] [h] | half-life at 1 µM [11] [h] | clearance [12] [mL/min/kg] | CL (Liver microsomes) [mL/min/kg] | CL (Canis familiaris [13]) [mL/min/kg] | CL (Liver) [mL/min/kg] | Vd (Canis familiaris [14]) [L/kg] | Vd [15] [L/kg] | fraction unbound at 1 µM [16] | fraction unbound at 1 µM [17] | Structure (SMILES) | also measured |
| --- | --- | --- | --- | --- | --- | --- | --- | --- | --- | --- | --- | --- | --- | --- | --- | --- | --- | --- |
| 0.8 | > 2 | 90 |  |  |  |  |  |  |  |  |  |  |  |  |  |  | COc1cc2c(cc1OC)CN(c1cc(N3CCCN(C(=O)N4CC(O)C(O)C4)CC3)nc3cc(OC)c(OC)cc13)CC2 (centres undefined) |  |
|  |  |  | 3.6 | 8.5 | 1.8 | 0.12 | 0.417 | 0.15 | 8.8 | 82 | 88 | 122 | 23 | 2.8 | 0.414 | 0.59 | COc1cc2nc(N3CCCN(C(=O)N4CCOCC4)CC3)cc(N)c2c(-c2ccccc2)c1OC | Fa [5]: 29%; bioavailability [9]: 24% |
|  |  |  | 1.6 | 6.9 | 1.5 | 0.56 | 0.767 | 0.15 | 20 | 34 | 60 | 41 | 4 | 2.2 | 1 | 0.939 | COc1cc2nc(N3CCCN(C(=O)N4CCOCC4)CC3)nc(N)c2c(-c2ccccn2)c1OC | bioavailability [18]: 63%; Fa [19]: 100% |
| 0.7 | > 2 | 100 |  |  |  |  |  |  |  |  |  |  |  |  |  |  | COc1cc2nc(N3CCCN(C(=O)N4CC(O)C(O)C4)CC3)nc(Nc3ccccn3)c2cc1OC (centres undefined) |  |
|  |  |  |  | 6.7 | 3 | 0.21 | 0.5 | 0.683 |  | 13 |  | 83 |  |  | 0.564 | 0.602 | COc1cc2nc(N3CCc4c(cccc4NS(C)(=O)=O)C3)nc(N)c2c(-c2ccccn2)c1OC [TAPRIZOSIN] | bioavailability [20]: 73%; bioavailability [21]: 42%; Vd (Rattus norvegicus): 24 L/kg; half-life [22]: 11.4 h; Tmax [23]: 0.5 h; Cmax [24]: 7.5 ng/mL; half-life [25]: 9.2 h; Cmax [26]: 105 ng/mL; fraction unbound at 1 ug/ml (Homo sapiens): 0.07; bioavailability [27]: 79%; half-life [28]: 1 h; Fa [29]: 89%; Vd [30]: 4.4 L/kg; clearance [31]: 5.6 mL/min/kg; Vd (Canis familiaris [32]): 21 L/kg; half-life [33]: 2.9 h; Tmax [34]: 1.3 h; fraction unbound at 1 ug/ml [35]: 0.07; clearance [36]: 22 mL/min/kg; Vd [37]: 1.7 L/kg |
|  |  |  |  |  |  |  |  |  |  |  |  |  |  |  |  |  | COc1cc2nc(N3CCN(C(=O)C4CCCO4)CC3)nc(N)c2cc1OC (centres undefined) [TERAZOSIN] | pA2 [38]: 9.8; pA2 [39]: 10 |
